For data set [1] the following is noted: cited from earlier work; for purity / water content / total impurities: US '987 A1 Table 1; for total impurities: in % (unit assumed).
A short description of data set [2]: Stability of pitavastatin calcium crystalline form at 40° C./75% RH and 25° C./60% RH (water by KF, related substances). In kind it is physicochemical. As to the method:
In general, the stability of pitavastatin calcium crystalline form having water content 5% wt/wt at 40° C./75% RH and 25° C./60% RH is shown in Table-1.

Data set [3] concerns patients with hypercholesterolaemia. The conditions noted are these: cited from earlier work.
[4] abbreviates: kept at 40° C. (air tight), after 90 days.
[5] abbreviates: kept at 40° C. (air tight), initial.
Setting [6] is: kept in open air, after 90 days.
Where [7] appears, read: 1 month, 40° C. ± 2° C., RH 75% ± 5%.
The mark [8] stands for this setting: 2 month, 40° C. ± 2° C., RH 75% ± 5%.
Where [9] appears, read: 3 month, 25° C. ± 2° C., RH 60% ± 5%.
[10] abbreviates: 3 month, 40° C. ± 2° C., RH 75% ± 5%.

Structures can show the parent of a compound that is named as a salt. Where two headings read alike, the source gives them in different places.

This is an account of results in patent US9034901B2, “Pitavastatin calcium and process for its preparation” (Cadila Healthcare Limited, priority 2010, dated 2015).

Consider `O=C(O)C[C@H](O)C[C@H](O)/C=C/c1c(C2CC2)nc2ccccc2c1-c1ccc(F)cc1` [pitavastatin calcium, (3R,5S)-7-[2-cyclopropyl-4-(4-flourophenyl)-quinolin-3-yl]-3,5-dihydroxy-6-(E)-heptenoic acid calcium salt], for which the purity is listed as 99.64 in data set [1] (setting [4]); 99.38% in data set [1] (setting [5]); 96.49 in data set [1] (setting [6]); 99.38% in data set [1] (kept in open air, initial). Further, the water content is 7.81% in data set [1] (setting [4]); “about 7.89” in data set [1] (setting [5]); 1.77% in data set [1] (setting [6]); “about 7.89” in data set [1] (kept in open air, initial). Besides, the total impurities in data set [1] (setting [4]) is listed as 0.211; in data set [1] (setting [5]), 0.179; in data set [1] (setting [6]), 2.099; in data set [1] (kept in open air, initial), 0.179. In addition, the “stability during the storage” value in data set [1] (pitavastatin calcium which has become amorphous, reported in US '987 A1) is “very poor stability”. In addition, the Related Substances: 5-oxo was 0.11% in data set [2] (setting [7]); 0.15% in data set [2] (setting [8]); 0.12% in data set [2] (setting [9]); 0.14% in data set [2] (setting [10]); 0.07% in data set [2] (Initial). Besides, the Related Substances: Desflouro in data set [2] (setting [7]), in data set [2] (setting [8]), in data set [2] (setting [9]), in data set [2] (setting [10]) and in data set [2] (Initial) was 0.05% in each case. The Related Substances: Diastereomer came to 0.11% in data set [2] (setting [7]); 0.11% in data set [2] (setting [8]); 0.12% in data set [2] (setting [9]); 0.11% in data set [2] (setting [10]); 0.17% in data set [2] (Initial). The Related Substances: Total Impurities in data set [2] (setting [7]) was found to be 0.28%; in data set [2] (setting [8]), 0.31%; in data set [2] (setting [9]), 0.36%; in data set [2] (setting [10]), 0.39%; in data set [2] (Initial), 0.32%. For the same compound, the “Water by KF” value in data set [2] (setting [7]) amounted to 2.9 % w/w; in data set [2] (setting [8]), 4.3 % w/w; in data set [2] (setting [9]) it was 3.9 % w/w; in data set [2] (setting [10]), 4.2 % w/w; in data set [2] (Initial), 3.0 % w/w. Also, the Related Substances: Lactone in data set [2] (setting [9]) worked out at 0.07%; in data set [2] (setting [10]), 0.09%. In addition, the safety and tolerability result in data set [3] (treatment of patients with hypercholesterolaemia) was “safe and well tolerated”.

As to `O=C(O)C[C@H](O)C[C@H](O)/C=C/c1c(C2CC2)nc2ccccc2c1-c1ccc(F)cc1` [pitavastatin], the potency entry in data set [3] (on the basis of reported data, dose-dependent) is “equivalent to that of atorvastatin”.
